# In patent US20080009418A1, “Selective Inhibitors” (Alchemia LTD., priority 2004, published 2008):
# Legend:
# Conditions in all cases: compound at 10 μM
# Human Melanocortin (MC4) = target: T1, Human Melanocortin (MC4) (Homo sapiens, UniProt P32245); assay: Radioligand binding, human melanocortin MC4 membranes, FlashPlate, [125I]-NDP-αMSH
# T1 construct: purchased Perkin Elmer Biosignal
# In short: (§1)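 Cloned human receptor membranes were coated onto FlashPlate wells and incubated with radioligand and compound (added from a 0.5 mM DMSO daughter plate) for 1 hour at room temperature in the dark. Scintillation counting gave percent inhibition, with DMSO defining total and reference ligand defining non-specific binding.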
# Human melanocortin (MC5) = target: T2, Human melanocortin (MC5) (Homo sapiens, UniProt P33032); assay: Radioligand binding, human melanocortin MC5 membranes, FlashPlate, [125I]-NDP-αMSH
# T2 construct: purchased Perkin Elmer Biosignal
# In short: as §1
# Human neurokinin (NK1) = target: T3, Human neurokinin (NK1) (Homo sapiens, UniProt P25103); assay: Radioligand binding, human neurokinin NK1 membranes, filtration, [125I]-Substance P
# T3 construct: purchased Perkin Elmer Biosignal
# In short: (§2)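 Filtration binding on cloned human receptor membranes (1 Unit/well), [125I]-Substance P for NK1 and [3H]-Diprenorphine for KOP, 1 h at room temperature. Filters PEI-presoaked, washed with cold 50 mM Tris-HCl pH 7.4, counted by scintillation; percent inhibition calculated, reference ligand defining non-specific binding.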
# [1] = target: T4, Human melanin-concentrating hormone (MCH1) (Homo sapiens, UniProt Q99705); assay: Radioligand binding, human melanin-concentrating hormone MCH1 membranes, FlashPlate, [125I]-S36057
# T4 construct: purchased Perkin Elmer Biosignal
# In short: as §1
# Human κ-Opioid (KOP) = target: T5, Human κ-Opioid (KOP) (Homo sapiens, UniProt P41145); assay: Radioligand binding, human κ-opioid (KOP) membranes, filtration, [3H]-Diprenorphine
# T5 construct: purchased Perkin Elmer Biosignal
# In short: as §2
# [2] = target: T6, Human neuropeptide Y (NPY-Y1) (Homo sapiens, UniProt P25929); assay: Radioligand binding, human neuropeptide Y NPY-Y1 membranes, FlashPlate, [125I]-PYY
# T6 construct: purchased Perkin Elmer Biosignal
# T6 sequence (P25929 1-384): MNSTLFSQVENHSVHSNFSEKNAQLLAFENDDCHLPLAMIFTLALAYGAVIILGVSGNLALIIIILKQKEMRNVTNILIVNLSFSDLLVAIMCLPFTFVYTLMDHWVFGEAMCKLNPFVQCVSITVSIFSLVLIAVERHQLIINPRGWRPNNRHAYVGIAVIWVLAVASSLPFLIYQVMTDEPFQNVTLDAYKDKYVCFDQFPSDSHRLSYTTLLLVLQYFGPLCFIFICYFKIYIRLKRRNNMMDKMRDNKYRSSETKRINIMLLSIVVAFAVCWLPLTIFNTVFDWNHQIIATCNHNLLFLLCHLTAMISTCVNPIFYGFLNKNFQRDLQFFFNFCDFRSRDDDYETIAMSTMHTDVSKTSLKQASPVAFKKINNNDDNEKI
# In short: as §1
# Human μ-opioid (MOP) = target: T7, Human μ-opioid (MOP) (Homo sapiens, UniProt P35372); assay: Radioligand binding, human μ-opioid (MOP) membranes, FlashPlate, [3H]-Naloxone
# T7 construct: purchased Perkin Elmer Biosignal
# In short: as §1
# Human Melanocortin (MC3) = target: T8, Human Melanocortin (MC3) (Homo sapiens, UniProt P41968); assay: Radioligand binding, human melanocortin MC3 membranes, FlashPlate, [125I]-NDP-αMSH
# T8 construct: purchased Perkin Elmer Biosignal
# In short: as §1
# Mouse urotensin (mUR2) = target: T9, Mouse urotensin (mUR2) (Mus musculus, UniProt Q8VIH9); assay: Radioligand binding, mouse urotensin mUR2 membranes, FlashPlate, [125I]-Urotensin II
# T9 construct: purchased Perkin Elmer Biosignal
# T9 sequence (Q8VIH9 1-385): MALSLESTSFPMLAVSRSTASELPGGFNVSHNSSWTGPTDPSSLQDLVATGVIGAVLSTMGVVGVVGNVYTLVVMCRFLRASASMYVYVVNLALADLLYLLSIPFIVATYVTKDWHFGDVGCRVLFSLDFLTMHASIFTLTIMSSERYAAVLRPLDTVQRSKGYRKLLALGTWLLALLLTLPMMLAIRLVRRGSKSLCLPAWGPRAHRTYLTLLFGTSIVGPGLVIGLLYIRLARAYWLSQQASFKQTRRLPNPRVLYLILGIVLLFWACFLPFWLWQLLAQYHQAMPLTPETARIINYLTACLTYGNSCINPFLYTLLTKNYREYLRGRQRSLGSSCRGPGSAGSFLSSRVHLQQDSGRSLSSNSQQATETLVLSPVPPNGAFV
# In short: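 Cloned mouse urotensin (mUR2) receptor membranes from Perkin Elmer Biosignal were immobilized in FlashPlate microplates using a proprietary coating. Each well got 19.5 μl buffer, then 0.5 μl of DMSO, reference ligand, or compound. Adding 5 μl of [125I]-Urotensin II, diluted to 5× final concentration in binding buffer, started binding. Plates were sealed with TopSeal-A and incubated 1 hour at room temperature in the dark. Wells were counted for 30 seconds each on a TopCount after a 60-second delay, and percentage inhibition was calculated.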
# Human δ-opioid (DOP) = target: T10, Human δ-opioid (DOP) (Homo sapiens, UniProt P41143); assay: Radioligand binding, human δ-opioid (DOP) membranes, FlashPlate, [3H]-Bremazocine
# T10 construct: purchased Perkin Elmer Biosignal
# In short: as §1
# Human opioid (ORL1) = target: T11, Human opioid (ORL1) (Homo sapiens, UniProt P41146); assay: Radioligand binding, human opioid ORL1 membranes, FlashPlate, [125I]-Nociceptin
# T11 construct: purchased Perkin Elmer Biosignal
# In short: as §1
# T5 sequence (P41145 whole entry): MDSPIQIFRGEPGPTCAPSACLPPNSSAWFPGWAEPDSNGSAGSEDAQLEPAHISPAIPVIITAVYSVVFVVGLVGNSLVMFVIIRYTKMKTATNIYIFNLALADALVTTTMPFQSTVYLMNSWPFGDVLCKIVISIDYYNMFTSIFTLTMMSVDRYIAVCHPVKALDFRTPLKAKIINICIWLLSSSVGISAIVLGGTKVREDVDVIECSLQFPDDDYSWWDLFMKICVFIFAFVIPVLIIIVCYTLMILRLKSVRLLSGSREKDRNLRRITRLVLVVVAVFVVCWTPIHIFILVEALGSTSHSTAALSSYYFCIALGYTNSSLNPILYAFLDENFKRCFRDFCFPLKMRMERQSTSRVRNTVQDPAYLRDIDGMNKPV
# T1 sequence (P32245 whole entry): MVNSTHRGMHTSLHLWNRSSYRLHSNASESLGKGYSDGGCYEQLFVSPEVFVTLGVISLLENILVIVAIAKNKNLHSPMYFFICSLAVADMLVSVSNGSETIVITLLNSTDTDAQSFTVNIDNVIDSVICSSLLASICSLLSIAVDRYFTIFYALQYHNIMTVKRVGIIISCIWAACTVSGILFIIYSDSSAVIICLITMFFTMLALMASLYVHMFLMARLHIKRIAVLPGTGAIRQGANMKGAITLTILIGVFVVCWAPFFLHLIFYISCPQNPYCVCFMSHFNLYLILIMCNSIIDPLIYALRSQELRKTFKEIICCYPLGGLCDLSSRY
# T3 sequence (P25103 whole entry): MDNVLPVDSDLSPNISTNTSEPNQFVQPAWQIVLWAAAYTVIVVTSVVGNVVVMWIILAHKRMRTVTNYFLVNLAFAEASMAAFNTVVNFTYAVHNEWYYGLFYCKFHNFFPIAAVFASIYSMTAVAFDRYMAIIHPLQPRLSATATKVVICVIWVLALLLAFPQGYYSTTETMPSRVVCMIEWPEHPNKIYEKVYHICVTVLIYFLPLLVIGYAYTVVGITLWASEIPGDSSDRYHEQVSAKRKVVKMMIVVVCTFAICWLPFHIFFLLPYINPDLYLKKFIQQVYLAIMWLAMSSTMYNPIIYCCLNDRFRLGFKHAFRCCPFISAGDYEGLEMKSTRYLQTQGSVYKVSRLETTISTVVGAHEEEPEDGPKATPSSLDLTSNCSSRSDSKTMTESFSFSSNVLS
# T11 sequence (P41146 whole entry): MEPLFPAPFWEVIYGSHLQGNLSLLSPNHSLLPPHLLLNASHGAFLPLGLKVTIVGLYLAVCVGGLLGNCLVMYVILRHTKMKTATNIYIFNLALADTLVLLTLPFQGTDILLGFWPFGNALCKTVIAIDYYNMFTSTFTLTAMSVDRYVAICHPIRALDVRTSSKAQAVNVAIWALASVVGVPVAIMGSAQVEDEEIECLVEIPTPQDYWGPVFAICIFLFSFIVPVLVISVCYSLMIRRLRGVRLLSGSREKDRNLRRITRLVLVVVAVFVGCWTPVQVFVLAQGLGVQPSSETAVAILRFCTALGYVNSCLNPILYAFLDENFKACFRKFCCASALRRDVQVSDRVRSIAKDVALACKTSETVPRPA
# T10 sequence (P41143 whole entry): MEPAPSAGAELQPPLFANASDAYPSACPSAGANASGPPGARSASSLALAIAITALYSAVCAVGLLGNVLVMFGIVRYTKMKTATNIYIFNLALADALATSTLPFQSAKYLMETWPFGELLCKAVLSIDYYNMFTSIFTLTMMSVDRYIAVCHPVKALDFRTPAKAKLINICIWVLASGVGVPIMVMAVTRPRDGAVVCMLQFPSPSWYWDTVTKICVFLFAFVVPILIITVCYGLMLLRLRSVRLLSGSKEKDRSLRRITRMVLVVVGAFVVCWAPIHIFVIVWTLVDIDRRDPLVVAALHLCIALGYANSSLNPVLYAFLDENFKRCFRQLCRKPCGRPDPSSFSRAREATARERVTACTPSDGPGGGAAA
# T4 sequence (Q99705 whole entry): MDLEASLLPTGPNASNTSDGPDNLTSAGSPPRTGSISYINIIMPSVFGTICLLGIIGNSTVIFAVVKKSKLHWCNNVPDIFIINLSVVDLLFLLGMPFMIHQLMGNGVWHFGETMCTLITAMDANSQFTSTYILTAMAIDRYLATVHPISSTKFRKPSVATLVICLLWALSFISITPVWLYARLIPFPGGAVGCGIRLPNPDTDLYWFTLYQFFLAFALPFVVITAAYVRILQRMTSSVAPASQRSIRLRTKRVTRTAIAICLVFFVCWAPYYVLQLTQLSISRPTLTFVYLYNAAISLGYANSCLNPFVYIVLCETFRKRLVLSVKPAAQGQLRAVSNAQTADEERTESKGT
# T8 sequence (P41968 whole entry): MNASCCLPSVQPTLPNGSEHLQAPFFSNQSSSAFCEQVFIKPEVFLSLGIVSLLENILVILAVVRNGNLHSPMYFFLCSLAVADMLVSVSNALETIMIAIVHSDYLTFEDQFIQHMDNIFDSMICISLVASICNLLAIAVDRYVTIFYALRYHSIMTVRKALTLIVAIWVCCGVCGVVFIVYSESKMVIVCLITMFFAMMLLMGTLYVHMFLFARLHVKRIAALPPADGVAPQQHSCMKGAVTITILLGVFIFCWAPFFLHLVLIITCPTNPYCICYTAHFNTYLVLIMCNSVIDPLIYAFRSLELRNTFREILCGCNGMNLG
# T7 sequence (P35372 whole entry): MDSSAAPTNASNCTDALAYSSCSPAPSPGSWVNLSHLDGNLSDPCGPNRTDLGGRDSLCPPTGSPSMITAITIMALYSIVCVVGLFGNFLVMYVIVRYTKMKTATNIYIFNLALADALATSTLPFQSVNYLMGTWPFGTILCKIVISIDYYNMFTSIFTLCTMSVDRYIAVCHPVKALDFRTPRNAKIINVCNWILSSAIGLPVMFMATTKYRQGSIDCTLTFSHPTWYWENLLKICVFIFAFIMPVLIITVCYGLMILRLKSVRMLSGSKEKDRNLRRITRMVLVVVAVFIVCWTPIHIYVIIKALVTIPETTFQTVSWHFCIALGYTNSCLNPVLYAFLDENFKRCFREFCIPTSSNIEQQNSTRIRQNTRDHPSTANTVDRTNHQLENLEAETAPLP
# T2 sequence (P33032 whole entry): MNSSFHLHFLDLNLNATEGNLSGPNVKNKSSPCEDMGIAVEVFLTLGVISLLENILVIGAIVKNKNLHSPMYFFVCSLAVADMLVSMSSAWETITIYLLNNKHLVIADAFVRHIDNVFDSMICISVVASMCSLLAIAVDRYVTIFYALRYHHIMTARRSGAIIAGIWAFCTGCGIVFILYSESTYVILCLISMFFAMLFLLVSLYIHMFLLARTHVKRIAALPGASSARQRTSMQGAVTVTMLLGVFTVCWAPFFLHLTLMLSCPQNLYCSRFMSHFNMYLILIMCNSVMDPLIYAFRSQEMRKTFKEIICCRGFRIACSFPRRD
smiles,measurement,setting,value
"NCCCC(=O)NC1C(OCc2ccc(Cl)cc2)OC(COCc2ccc(Cl)cc2)C(O)C1OCc1ccc2ccccc2c1 (single isomer, unassigned) [compound 499]","A4: inhibition of radioligand binding, human melanocortin (MC4)",Human Melanocortin (MC4); [125I]-NDP-αMSH,+ (“+” indicates greater than 50% inhibition at 10 μM)
same,"A5: inhibition of radioligand binding, human melanocortin (MC5)",Human melanocortin (MC5); [125I]-NDP-αMSH,+ (“+” indicates greater than 50% inhibition at 10 μM)
same,"A8: inhibition of radioligand binding, human neurokinin (NK1)",Human neurokinin (NK1); [125I]-Substance P,+ (“+” indicates greater than 50% inhibition at 10 μM)
same,"A6: inhibition of radioligand binding, human melanin-concentrating hormone (MCH1)","[1]; [125I]-S36057, 10 µM",− (“−” indicates less than 50% inhibition at 10 μM)
same,"A2: inhibition of radioligand binding, human κ-opioid (KOP)",Human κ-Opioid (KOP); [3H]-Diprenorphine,− (“−” indicates less than 50% inhibition at 10 μM)
same,"A9: inhibition of radioligand binding, human neuropeptide Y (NPY-Y1)",[2]; [125I]-PYY,− (“−” indicates less than 50% inhibition at 10 μM)
same,"A7: inhibition of radioligand binding, human μ-opioid (MOP)","Human μ-opioid (MOP); [3H]-Naloxone, 10 µM",− (“−” indicates less than 50% inhibition at 10 μM)
same,"A3: inhibition of radioligand binding, human melanocortin (MC3)",Human Melanocortin (MC3); [125I]-NDP-αMSH,+ (“+” indicates greater than 50% inhibition at 10 μM)
same,"A11: inhibition of radioligand binding, mouse urotensin (mUR2)",Mouse urotensin (mUR2); [125I]-Urotensin II,− (“−” indicates less than 50% inhibition at 10 μM)
same,"A1: inhibition of radioligand binding, human δ-opioid (DOP)",Human δ-opioid (DOP); [3H]-Bremazocine,− (“−” indicates less than 50% inhibition at 10 μM)
same,"A10: inhibition of radioligand binding, human opioid (ORL1)",Human opioid (ORL1); [125I]-Nociceptin,+ (“+” indicates greater than 50% inhibition at 10 μM)
COC[C@H]1OC(OCc2ccc(Cl)cc2)[C@H](NC(=O)CNC(=N)N)[C@@H](OCc2ccc(-c3ccccc3)cc2)[C@@H]1O (some centres unmarked) [compound 28],A4 radioligand binding inhibition,Human Melanocortin (MC4); human melanocortin MC4 membranes,+ (“+” indicates greater than 50% inhibition at 10 μM)
same,A5 radioligand binding inhibition,Human melanocortin (MC5); human melanocortin MC5 membranes,+ (“+” indicates greater than 50% inhibition at 10 μM)
same,A8 radioligand binding inhibition,Human neurokinin (NK1); human neurokinin NK1 membranes,+ (“+” indicates greater than 50% inhibition at 10 μM)
same,A6 radioligand binding inhibition,[1]; human MCH1 membranes,+ (“+” indicates greater than 50% inhibition at 10 μM)
same,A2 radioligand binding inhibition,Human κ-Opioid (KOP); human κ-opioid (KOP) membranes,− (“−” indicates less than 50% inhibition at 10 μM)
same,A9 radioligand binding inhibition,[2]; human NPY-Y1 membranes,− (“−” indicates less than 50% inhibition at 10 μM)
same,A7 radioligand binding inhibition,Human μ-opioid (MOP); human μ-opioid (MOP) membranes,− (“−” indicates less than 50% inhibition at 10 μM)
same,A3 radioligand binding inhibition,Human Melanocortin (MC3); human melanocortin MC3 membranes,− (“−” indicates less than 50% inhibition at 10 μM)
same,A11 radioligand binding inhibition,Mouse urotensin (mUR2); mouse urotensin mUR2 membranes,− (“−” indicates less than 50% inhibition at 10 μM)
same,A1 radioligand binding inhibition,Human δ-opioid (DOP); human δ-opioid (DOP) membranes,− (“−” indicates less than 50% inhibition at 10 μM)
same,A10 radioligand binding inhibition,Human opioid (ORL1); human ORL1 membranes,− (“−” indicates less than 50% inhibition at 10 μM)
CSC1O[C@H](COCc2ccc3ccccc3c2)[C@@H](O)[C@@H](OCc2ccc(Cl)cc2)[C@H]1NC(=O)CCN (some centres unmarked) [compound 282],A4: inhibition of radioligand binding,"Human Melanocortin (MC4); [125I]-NDP-αMSH, FlashPlate",+ (“+” indicates greater than 50% inhibition at 10 μM)
same,A5: inhibition of radioligand binding,"Human melanocortin (MC5); [125I]-NDP-αMSH, FlashPlate",− (“−” indicates less than 50% inhibition at 10 μM)
same,A8: inhibition of radioligand binding,"Human neurokinin (NK1); [125I]-Substance P, filtration",+ (“+” indicates greater than 50% inhibition at 10 μM)
same,A6: inhibition of radioligand binding,"[1]; [125I]-S36057, FlashPlate",− (“−” indicates less than 50% inhibition at 10 μM)
same,A2: inhibition of radioligand binding,"Human κ-Opioid (KOP); [3H]-Diprenorphine, filtration",− (“−” indicates less than 50% inhibition at 10 μM)
same,A9: inhibition of radioligand binding,"[2]; [125I]-PYY, FlashPlate",− (“−” indicates less than 50% inhibition at 10 μM)
same,A7: inhibition of radioligand binding,"Human μ-opioid (MOP); [3H]-Naloxone, FlashPlate",− (“−” indicates less than 50% inhibition at 10 μM)
same,A3: inhibition of radioligand binding,"Human Melanocortin (MC3); [125I]-NDP-αMSH, FlashPlate",− (“−” indicates less than 50% inhibition at 10 μM)
same,A11: inhibition of radioligand binding,"Mouse urotensin (mUR2); [125I]-Urotensin II, FlashPlate",− (“−” indicates less than 50% inhibition at 10 μM)
same,A1: inhibition of radioligand binding,"Human δ-opioid (DOP); [3H]-Bremazocine, FlashPlate",− (“−” indicates less than 50% inhibition at 10 μM)
same,A10: inhibition of radioligand binding,"Human opioid (ORL1); [125I]-Nociceptin, FlashPlate",− (“−” indicates less than 50% inhibition at 10 μM)
NCCC(=O)N[C@H]1C(OCc2ccc3ccccc3c2)O[C@H](COCc2ccccc2)[C@@H](O)[C@@H]1OCc1ccc(Cl)cc1 (some centres unmarked) [compound 438],A4: inhibition of radioligand binding,"Human Melanocortin (MC4); [125I]-NDP-αMSH, human MC4 membranes, 10 µM",− (“−” indicates less than 50% inhibition at 10 μM)
same,A5: inhibition of radioligand binding,"Human melanocortin (MC5); [125I]-NDP-αMSH, human MC5 membranes, 10 µM",− (“−” indicates less than 50% inhibition at 10 μM)
same,A8: inhibition of radioligand binding,"Human neurokinin (NK1); [125I]-Substance P, human NK1 membranes",+ (“+” indicates greater than 50% inhibition at 10 μM)
same,A6: inhibition of radioligand binding,"[1]; [125I]-S36057, human MCH1 membranes, 10 µM",+ (“+” indicates greater than 50% inhibition at 10 μM)
same,A2: inhibition of radioligand binding,"Human κ-Opioid (KOP); [3H]-Diprenorphine, human KOP membranes",− (“−” indicates less than 50% inhibition at 10 μM)
same,A9: inhibition of radioligand binding,"[2]; [125I]-PYY, human NPY-Y1 membranes",− (“−” indicates less than 50% inhibition at 10 μM)
same,A7: inhibition of radioligand binding,"Human μ-opioid (MOP); [3H]-Naloxone, human MOP membranes",− (“−” indicates less than 50% inhibition at 10 μM)
same,A3: inhibition of radioligand binding,"Human Melanocortin (MC3); [125I]-NDP-αMSH, human MC3 membranes",− (“−” indicates less than 50% inhibition at 10 μM)
same,A11: inhibition of radioligand binding,"Mouse urotensin (mUR2); [125I]-Urotensin II, mouse mUR2 membranes",− (“−” indicates less than 50% inhibition at 10 μM)
same,A1: inhibition of radioligand binding,"Human δ-opioid (DOP); [3H]-Bremazocine, human DOP membranes",− (“−” indicates less than 50% inhibition at 10 μM)
same,A10: inhibition of radioligand binding,"Human opioid (ORL1); [125I]-Nociceptin, human ORL1 membranes",− (“−” indicates less than 50% inhibition at 10 μM)
